Columns and labels:
[1] = tested on: HSC-2-Luc inoculated into tongue; assay: HSC-2 orthotopic transplantation mouse model; assay type: in vivo, nude mice; conditions: for ILS (%): Compound (1) 0.09 mg/kg
[2] = tested on: CD31-positive vessel in FaDu tumor; assay: Effect on CD31-positive vessel in the FaDu subcutaneous model (FIG. 13); assay type: in vivo, nude mice; conditions: single i.v. administration at 20, 60, and 180 μg/kg, five days after
Protocol: A human squamous cell carcinoma of the head and neck (SCCHN) cell line FaDu, which had been cultured in an RPMI-1640 medium containing 10% FBS, and penicillin-streptomycin (culture medium), was adjusted to a concentration of 5×10^7 cells/mL with culture medium to prepare a cell suspension. The cell suspension was inoculated in a volume of 100 μL into a subcutaneous part of a right flank of nude mice, 6 weeks of ages (CAnN.Cg-Foxnlnu/CrlCrlj, female, Charles River Laboratories Japan, Inc.). Ten days after cell inoculation, the mice were grouped such that averages of the tumor volumes were substantially equal among the groups. The experiment was conducted on groups each consisting of 6 mice. Each test compound was dissolved in DMSO and a solution was stored in the freezer before use. Immediately before the administration, the stock solution was diluted with saline. […] The number of blood vessels in the whole tumor was quantified by counting the CD31-positive objects using inform 2 software (PerkinElmer Inc.) Area of the tumor region was measured by assessing the hematoxylin-staining area using inform 2 software (PerkinElmer Inc.) The number of blood vessels was normalized by the area of the tumor region. […] The ratios of blood vessel number in the test compound-dosing groups compared to non-treat group were calculated with the below formula: […]

[3] = tested on: human angiosarcoma CTG-2041 tumor fragments; assay: CTG-2041 xenograft as monotherapy (FIG. 17); assay type: in vivo, mice; conditions: 100 μg/kg i.v. Day 1 and Day 8
Protocol: Tumor fragments of human angiosarcoma CTG-2041 were implanted s.c. in the left flank of female mice. Tumor growth was monitored twice a week using digital caliper, so as to calculate the volume of the tumor in accordance with the following calculation formula: […]
When the volume of tumors reached approximately 200 mm^3, animals are matched by tumor volume into treatment or control groups and dosing initiated on Day 1. Each group was consisted with five mice. Compound (1) was dissolved in DMSO and a solution was stored in the freezer before use. Compound (1) (100 μg/kg) diluted in saline and intravenously injected on Day 1 and Day 8.

[4] = tested on: FaDu subcutaneous xenograft; assay: FaDu subcutaneous xenograft in combination with cetuximab, single dose (FIG. 16); assay type: in vivo, athymic mice; conditions: single dose Day 1
Protocol: A human squamous cell carcinoma of the head and neck (SCCHN) cell line FaDu, which had been cultured in an RPMI-1640 medium containing 10% FBS, and penicillin-streptomycin, was adjusted to a concentration of 5×10^7 cells/mL with Hanks' Balanced Salt Solution to prepare a cell suspension. The cell suspension was inoculated in a volume of 100 μL into a subcutaneous part of a right flank of athymic mice (CAnN.Cg-Foxnlnu/CrlCrlj, female, 7 weeks old, Charles River Japan Inc.). Ten days after cell inoculation (Day 1), the length and the width of a tumor in each mouse were measured by using an electronic digital caliper (Mitutoyo Corporation), so as to calculate the volume of the tumor in accordance with the following calculation formula: […]
On the basis of TV, the mice were randomly grouped (Day 1). Each group was consisted in six mice. Compound (1) was dissolved in DMSO and a solution was stored in the freezer before use.

[5] = tested on: OSC-19 subcutaneous xenograft; assay: Antitumor activity against OSC-19 subcutaneous xenograft as monotherapy; assay type: in vivo, nude mice; conditions: Q7Dx2
Protocol: A human squamous cell carcinoma of the head and neck (SCCHN) cell line OSC-19, which had been cultured in an DMEM/Ham's F-12 (1:1) medium containing 10% FBS, and penicillin and streptomycin, was adjusted to a concentration of 1×10^8 cells/ml with PBS to prepare a cell suspension, and the suspension was mixed with Matrigel™ (BD Bioscience, #366237) in a ratio of 1:1 to prepare a cell suspension in a concentration of 5×10^7 cell/mL. The cell suspension was inoculated in a volume of 100 μL into a subcutaneous part of a right flank of nude mice, 5 weeks of ages (CAnN.Cg-Foxnlnu/CrlCrlj, female, Charles River Laboratories Japan, Inc.). Six days after cell inoculation, the shortest diameter and the longest diameter of a tumor in each mouse were measured by using an electronic digital caliper (Digimatic™ caliper, Mitutoyo Corporation), so as to calculate the volume of the tumor in accordance with the following calculation formulae: […]
On the basis of the volumes of tumors obtained on the first day of administration, the mice were grouped such that averages of the tumor volumes were substantially equal among the groups. The experiment was conducted on groups each consisting of 6 mice. Test compound was dissolved in saline and intravenously administered at doses from 0.06 mg/kg to 0.18 mg/kg once a week for 2 weeks (Q7Dx2 schedule).

SMILES: C=C1C[C@@H]2CC[C@@]34C[C@H]5O[C@H]6[C@@H](O3)[C@H]3O[C@H](CC[C@@H]3O[C@H]6C5O4)CC(=O)O[C@@H]3[C@@H](C)[C@@H]4O[C@@H]5C[C@]6(C[C@@H]7O[C@]8(C[C@H](C)[C@@H]9O[C@H](CN)[C@H](O)C[C@@H]9O8)C[C@H](C)[C@@H]7O6)O[C@@H]5C[C@@H]4O[C@H]3C[C@H]3O[C@@H](CC[C@@H]1O2)C[C@@H](C)C3=C (stereo in doubt) [Compound (1)]
- bioluminescence signal ([1]; Compound (1) with cetuximab, after Day 14): clearly reduced the bioluminescence signal in all mice
- survived mice on Day 100 ([1]; Compound (1)+CTX combination group, n=16): 10
- ILS (%) ([1]; single agent, Q7Dx3: cetuximab 5 mg/kg, cisplatin 5 mg/kg): 238%
- ILS (%) ([1]; with cetuximab 5 mg/kg, Q7Dx3: cisplatin 5 mg/kg): >1150%
- tumor blood vessel number [2]: increased the tumor blood vessel number
- antitumor activity [3]: tumor regression
- antitumor efficacy with CTX ([4]; 20 μg/kg + cetuximab 10 mg/kg): tended to be stronger than that of CTX monotherapy
- antitumor efficacy with CTX ([4]; 180 μg/kg and 60 μg/kg + cetuximab 10 mg/kg): stronger than that of CTX monotherapy with tumor regression
- Tumor Regression (%) ([5]; 0.06 mg/kg i.v.): 59%
- Tumor Regression (%) ([5]; 0.18 mg/kg i.v.): 90%

From patent US20240309014A1, “MACROCYCLIC COMPOUNDS AND USES THEREOF” (President and Fellows of Harvard College, priority 2017, published 2024)
